The values that follow come from US6716857B2, “Tetrahydropyridine derivatives acting on muscarinic acetylcholine receptors” (Korea Institute of Science and Technology, priority 2001, dated 2004).

pIC50: −log10 of the molar value.

In experiment [1] the test system is T1, Oxo-M binding receptor of muscarinic receptors (rat forebrain synapse membranes).
T1 construct: under head M1
The experiment is described as follows: [3H]-oxotremorine-M ([3H]-Oxo-M) affinity screening test. As to conditions: inhibition of specific [3H]-Oxo-M binding, under head M1; for M1 Oxo-M (1 μM) inhibition: compound at 1 μM. The source says: (§1) [^3H]-oxotremorine-M ([^3H]-Oxo-M) Affinity Screening Test
(§2) The experimental principle was the same as [^3H]-NMS affinity screening test. […] The functions of the compounds may be determined by carrying out both of [^3H]-NMS and [^3H]-Oxo-M (oxotremorine) affinity screening tests to measure their respective IC50 values and calculating ratios (NMS/Oxo-M) of the measured IC50 values.
(§3) Synapse membranes for binding assay of Oxo-M binding receptor of muscarinic receptors were directly prepared and used in the laboratory as follows: male Sparague-Dawley rats (supplied from Laboratory Animal Center of Korea Research Institute of Chemical Technology, 250 to 300 g) were sacrificed by decapitation. The brain tissues were immediately removed from and the forebrain was obtained, which was sectioned into small pieces. After adding 10-fold amount of ice-cooled solution of sucrose (0.32M), the sectioned forebrain was homogenized using Teflon-glass homogenizer (Contorque, Eberbach) at 10 strokes and 500 rpm, centrifuged at 1000 g for 15 minutes, and then the supernatant was again centrifuged at 17000 g for 20 minutes. The pellet was stored at −20° C. and then used.
(§4) Before the pellet was used at this assay, it was suspended in 10 mL of 20 mM HEPES buffer (pH 7.4), again centrifuged at 17000 g for 15 minutes and then washed. Finally, the washed membrane was diluted in ice-cooled 20 mM HEPES buffer (pH 7.4) to the final concentration of 1:100 (wet wt/v) and used at this assay. All test samples were tested four times, and 20 mM HEPES buffer (pH 7.4) was used as a buffer for screening test. The final volume of reaction was 1 mL, and 24-well plate (costar 24-well) was used. 50 μL of hot-ligand (Oxo-M 5 nM) and 10 μL of test drugs were included therein, and the reaction was initiated by adding 750 μL of synapse membrane and continued at 30° C. for 40 minutes on the shaking incubator. 2 μM atropine was used for non-specific binding in all tests. After completion of the reaction, the receptor binding ligands and non-binding ligands were separated by using Inotech cell harvester (24-channels, Inotech, Switzerland) and filtering under reduced pressure (10×ice-cooled saline) with Wallac GF/C filter (pre-immersed in 0.05% polyethylene imine). The radioactivity of the receptor binding ligands was detected by Liquid Scintillation Counter (MicroBeta Plus, Wallac, Finland).
(§5) The test drugs were diluted sequentially for the required concentrations by dissolving them in dimethylsulfoxide (DMSO) and used in the test. […] From the saturated affinity screening test, Kd and Bmax values, and IC50 or Ki values of respective test drugs were calculated by observing the non-linear regression using prism (Graphpad software Inc., USA). The saturated affinity screening test was carried out in the range of 0.1 to 10 nM of [^3H]-Oxo-M ligand as described above.

For experiment [2], the system named is Oxo-M binding receptor of muscarinic receptors (rat forebrain synapse membranes). The description is as above. As to conditions: ratio IC50 NMS / IC50 Oxo-M; >180 full agonist, 14 to 130 partial agonist, 0.2 to 1.9 antagonist.
From the text: as §1, §2, §3, §4, §5

In experiment [3] the target is T2, human recombinant muscarinic receptor subtype 2 (M2) expressed in CHO cells (Homo sapiens, UniProt P08172).
T2 construct: purchased Biosignal, Canada; host or cells: CHO cells
T2 sequence (P08172 1-466): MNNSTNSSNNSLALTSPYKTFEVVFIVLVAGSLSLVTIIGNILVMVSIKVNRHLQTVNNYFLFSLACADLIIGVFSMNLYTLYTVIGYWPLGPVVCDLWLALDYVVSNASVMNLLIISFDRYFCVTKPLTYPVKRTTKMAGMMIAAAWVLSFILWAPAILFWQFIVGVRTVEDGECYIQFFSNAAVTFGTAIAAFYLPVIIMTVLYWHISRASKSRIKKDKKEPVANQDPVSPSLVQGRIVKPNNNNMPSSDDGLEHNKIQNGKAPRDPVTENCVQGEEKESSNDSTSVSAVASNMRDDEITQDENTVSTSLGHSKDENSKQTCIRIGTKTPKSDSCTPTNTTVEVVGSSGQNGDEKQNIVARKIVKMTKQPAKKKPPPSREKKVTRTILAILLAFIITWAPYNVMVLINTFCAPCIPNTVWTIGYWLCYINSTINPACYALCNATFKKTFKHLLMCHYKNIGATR
Nature of the experiment: [3H]-N-methyl-scopolamine ([3H]-NMS) affinity screening test, M2. Particulars: inhibition of specific [3H]-NMS binding, compound at 1 μM. An excerpt: (§6) [^3H]-N-methyl-scopolamine ([^3H]-NMS) Affinity Screening Test
(§7) In order to exclude the interaction between subtypes, human recombinant muscarinic receptor subtypes 1, 2 and 3 expressed in CHO cells (M1, M2 and M3, Biosignal, Canada) were purchased and used as receptor sources. [^3H]-N-methyl-scopolamine (NEN, NET-636) was used as radioisotope labeled ligands, and atropine was used for the measurement of the non-specific binding ability. About 10 kinds of experimental apparatuses including Liquid Scintillation Counter (MicroBeta 1450 plus), Inotech cell harvester (96-well) were used.
In order to determine the effect of each compound on M1 and M2 receptors, the compounds were reacted with the receptors using radioisotope labeled ligands. After the reaction, the excess unbound ligands were removed by filtering with a glass fiber filter. The amount of radioisotopes remaining on the washed filter plate was then measured to quantify the binding reaction between the receptors and the ligands and, from the result, the affinity of the drugs for the receptors was determined.
(§8) The freeze-stored receptors at −70° C. were suspended in test buffer solutions and then the screening test (BioRad protein) was carried out to determine the optimum concentration of the proteins. Thereafter, 50 μL of hot-ligands and 10 μL of test drugs were added to 96-well plate and 100 μL of 50 mM TRIS buffer (pH 7.2) containing 10 mM MgCl2 and 1 mM EDTA was added as a test buffer. The final volume of the reaction was 0.25 mL. The reaction was initiated by adding 100 μL of the diluted receptor suspension, and continued for 60 minutes on a shaking incubator at 27° C. This test was repeated four times. After 60 minutes, the reaction was terminated by adding cold TRIS buffer (0.5 mL, pH 7.4). The excess unbound radioisotopes were removed from the reaction mixture using Inotech cell harvester system. After washing the mixture, the radioactivity detected by the filter mat was measured using Liquid Scintillation Counter. As primary stage of the efficacy screening, the drugs at two concentrations (1 μM, 10 μM) were screened for their affinity for the receptors. As secondary stage, drugs showing remarkable efficacies were determined at the lower concentrations. Finally, IC50 values were calculated at the gradient of 10 concentrations. The test drugs were diluted sequentially for the required concentrations by dissolving them in dimethylsulfoxide (DMSO). […] From the saturation affinity screening test, Kd and Bmax values, and IC50 or Ki values of each test drugs were calculated by observing the non-linear regression using prism (Graphpad software Inc.,USA).
(§9) In the equilibrium affinity screening test, [^3H]-N-methyl-scopolamines at the gradient of 12 concentrations were used for the measurement of the binding ability (IC50). In the competition screening test, 1 nM of [^3H]-N-methyl-scopolamines, and the reference drugs at the gradient of 10 concentrations were used for the measurement. 4-DAMP-methyliodide, Pirenzepine, p-F-hexahydro-sila-defenidol, Methoctramine, and the like were used as reference drugs.

For experiment [4], the target named is T3, human recombinant muscarinic receptor subtype 1 (M1) expressed in CHO cells (Homo sapiens, UniProt P11229).
T3 construct: purchased Biosignal, Canada; host or cells: CHO cells
T3 sequence (P11229 1-460): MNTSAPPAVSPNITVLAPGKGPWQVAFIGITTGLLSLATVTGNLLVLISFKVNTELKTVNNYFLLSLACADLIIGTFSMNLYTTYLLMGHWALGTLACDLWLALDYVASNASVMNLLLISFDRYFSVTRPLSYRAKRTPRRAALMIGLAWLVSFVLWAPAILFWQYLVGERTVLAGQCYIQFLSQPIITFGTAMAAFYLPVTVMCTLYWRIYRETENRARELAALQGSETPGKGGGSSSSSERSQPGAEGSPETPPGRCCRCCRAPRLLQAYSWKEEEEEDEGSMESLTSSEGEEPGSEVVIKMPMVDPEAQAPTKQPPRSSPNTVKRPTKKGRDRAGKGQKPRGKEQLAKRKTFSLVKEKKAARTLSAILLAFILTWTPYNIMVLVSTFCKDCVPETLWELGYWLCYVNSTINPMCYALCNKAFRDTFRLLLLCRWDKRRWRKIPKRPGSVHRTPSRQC
Nature of the experiment: [3H]-N-methyl-scopolamine ([3H]-NMS) affinity screening test, M1. As to conditions: inhibition of specific [3H]-NMS binding.
From the text: as §6, §7
In order to determine the effect of each compound on M1 and M2 receptors, the compounds were reacted with the receptors using radioisotope labeled ligands. After the reaction, the excess unbound ligands were removed by filtering with a glass fiber filter.
as §8, with “As secondary stage, drugs showing remarkable efficacies were determined at the lower concentrations.” left out
as §9

One may read the pIC50 as the IC50 on a negative log10 scale, so that one unit is a factor of ten. As a reminder, the inhibition is how much of the control response was suppressed. On to `CN1CCC=C(C#CCN2CCCC2=O)C1` [Example 30, 1-[3-(1-methyl-1,2,5,6-tetrahydro-pyridin-3-yl)-propyn-2-yl]-pyrrolidin-2-one], for which the “M1 Oxo-M (1 μM) inhibition” value in experiment [1] turned out to be 96.6%. Besides, the pIC50 is 7.85 in experiment [1] and 4.97 in experiment [4]. The “NMS/Oxo-M (ratio of IC50 values)” value in experiment [2] was 774. For the same compound, the inhibition at 1 µM in experiment [3] worked out at 42.3%. Further, the inhibition at 10 µM in experiment [4] (compound at 10 μM) is 58.5%.
On to `COC(=O)C1=CCCN(C)C1` [Arecoline, reference compound], for which, in experiment [1], the “M1 Oxo-M (1 μM) inhibition” value was determined as 85.5% and the pIC50 is 6.85.
With `C#CCON=C(CN1CCCC1=O)c1cccnc1` [Example 24, 1-(2-propyn-2-yloxyimino-2-pyridin-3-yl-ethyl)-pyrrolidin-2-one], in experiment [1], the “M1 Oxo-M (1 μM) inhibition” value was determined as 58.0% and the pIC50 was 6.49. The “NMS/Oxo-M (ratio of IC50 values)” value in experiment [2] turned out to be 306. The “M2 NMS (1 μM) inhibition” value in experiment [3] is reported as 0%. Also, the “M1 NMS (10 μM) inhibition” value in experiment [4] (compound at 10 μM) is recorded as 0%.
Consider `CN1CCC=C(C(CCN2CCCC2=O)=NO)C1` [Example 16, 1-[3-hydroxyimino-3-(1-methyl-1,2,5,6-tetrahydro-pyridin-3-yl)-propyl]-pyrrolidin-2-one], for which the “M1 Oxo-M (1 μM) inhibition” value in experiment [1] worked out at 92.4%. For the same compound, the pIC50 in experiment [1] is 7.13; in experiment [4], 4.76. Further, the “NMS/Oxo-M (ratio of IC50 values)” value in experiment [2] is 236. Moreover, the inhibition at 1 µM in experiment [3] came out at 22.6%. Further, the inhibition at 10 µM in experiment [4] (compound at 10 μM) worked out at 39.5%.
Take `C#CCON=C(CCN1CCCC1=O)C1=CCCN(C)C1` [Example 18, 1-[3-(1-methyl-1,2,5,6-tetrahydro-pyridin-3-yl)-3-propyn-2-yloxyimino-propyl]-pyrrolidin-2-one]: in experiment [1], the “M1 Oxo-M (1 μM) inhibition” value was 75.3% and the pIC50 was 6.42. Further, the “NMS/Oxo-M (ratio of IC50 values)” value in experiment [2] amounted to 35. In experiment [3], the inhibition at 1 µM is 26.8%. For the same compound, the pIC50 in experiment [4] was 4.87. For the same compound, the inhibition at 10 µM in experiment [4] (compound at 10 μM) stood at 42.9%.
In the case of `CN1CCC=C(C(CN2CCCC2=O)=NO)C1` [Example 26, 1-[2-hydroxyimino-2-(1-methyl-1,2,5,6-tetrahydro-pyridin-3-yl)-ethyl]-pyrrolidin-2-one], in experiment [1], the “M1 Oxo-M (1 μM) inhibition” value turned out to be 96.9% and the pIC50 is 9.05. The “NMS/Oxo-M (ratio of IC50 values)” value in experiment [2] is listed as 4078. The inhibition at 1 µM in experiment [3] worked out at 94.1%. Besides, the pIC50 in experiment [4] was 5.44. Besides, the inhibition at 10 µM in experiment [4] (compound at 10 μM) stood at 87.6%.
For `CN1CCC=C(C(CN2CCCC2=O)=NOCc2ccccc2)C1` (mixture of isomers) [Example 29, 1-[2-benzyloxyimino-2-(1-methyl-1,2,5,6-tetrahydro-pyridin-3-yl)-ethyl]-pyrrolidin-2-one], in experiment [1], the “M1 Oxo-M (1 μM) inhibition” value is reported as 78.4% and the pIC50 is 6.79. For the same compound, the “NMS/Oxo-M (ratio of IC50 values)” value in experiment [2] is 486. Further, in experiment [3], the inhibition at 1 µM was 0%. The pIC50 in experiment [4] was 4.10. Besides, in experiment [4] (compound at 10 μM), the inhibition at 10 µM came to 0%.
